Data: ChEMBL document CHEMBL1287811, “Two new cytotoxic labdane diterpenes from the rhizomes of Hedychium coronarium” (2010)

What was measured:
Type in all cases: functional
SK-N-SH = assay: Growth inhibition of human SK-N-SH cells by Sulforhodamine B assay
HeLa = assay: Growth inhibition of human HeLa cells by Sulforhodamine B assay
MCF7 = assay: Growth inhibition of human MCF7 cells by Sulforhodamine B assay
A549 = assay: Growth inhibition of human A549 cells by Sulforhodamine B assay; conditions: for CC50: read-out: LC50 (the source's name)

Structure (SMILES): CC1(C)CCC[C@]2(C)[C@@H](/C=C/C3=CCOC3=O)C(C=O)=CC(=O)[C@@H]12
- GI50 (SK-N-SH): 38.7 µM
- LC50 (SK-N-SH): 48.5 µM
- GI50 (HeLa): 76.9 µM
- LC50 (HeLa): > 100 µM
- GI50 (MCF7): 69.9 µM
- LC50 (concentration killing 50% of cells) (MCF7): > 100 µM
- GI50 (A549): 18.5 µM
- CC50 (A549): 45.9 µM

Structure (SMILES): CC1(C)CCC[C@]2(C)[C@@H](/C=C/C3=CC(=O)OC3)C(CO)=C(O)C(=O)[C@@H]12
- GI50 (SK-N-SH): 12.1 µM
- LC50 (SK-N-SH): 19.3 µM
- GI50 (HeLa): 79.7 µM
- LC50 (HeLa): > 100 µM
- GI50 (MCF7): 12 µM
- LC50 (concentration killing 50% of cells) (MCF7): 15.4 µM
- GI50 (A549): 26 µM
- CC50 (A549): 48.7 µM

Structure (SMILES): CC1=CC(=O)[C@H]2C(C)(C)CCC[C@]2(C)[C@H]1/C=C/C1=CCOC1=O
- GI50 (SK-N-SH): 8.2 µM
- LC50 (SK-N-SH): 20.8 µM
- GI50 (HeLa): 83.6 µM
- LC50 (HeLa): > 100 µM
- GI50 (MCF7): 15.7 µM
- LC50 (concentration killing 50% of cells) (MCF7): 19.8 µM
- GI50 (A549): 21.7 µM
- CC50 (A549): 39.6 µM

Structure (SMILES): CC1=CC(=O)[C@H]2C(C)(C)CCC[C@]2(C)C1/C=C/C1=CC(O)OC1=O (some centres not stated)
- GI50 (SK-N-SH): 17.5 µM
- LC50 (SK-N-SH): 22.8 µM
- GI50 (HeLa): > 100 µM
- LC50 (HeLa): > 100 µM
- GI50 (MCF7): 28.5 µM
- LC50 (concentration killing 50% of cells) (MCF7): 34.8 µM
- GI50 (A549): 10.6 µM
- CC50 (A549): 21.2 µM

Structure (SMILES): COc1cc(/C=C/C=O)ccc1O [CONIFERYL ALDEHYDE]
- GI50 (SK-N-SH): 10.6 µM
- GI50 (HeLa): 61.8 µM
- GI50 (MCF7): 39.5 µM
- GI50 (A549): 1.7 µM
- CC50 (A549): 11.4 µM

Structure (SMILES): C=C1CC[C@H]2C(C)(C)CCC[C@]2(C)[C@H]1CCC1=CC(O)OC1=O (some centres not stated) [CORONARIN C]
- GI50 (SK-N-SH): 25.8 µM
- LC50 (SK-N-SH): 33.7 µM
- GI50 (HeLa): 36.3 µM
- LC50 (HeLa): 45.9 µM
- GI50 (MCF7): 32.6 µM
- LC50 (concentration killing 50% of cells) (MCF7): 40.7 µM
- GI50 (A549): 4.8 µM
- CC50 (A549): 9.5 µM

Structure (SMILES): C=C1CC[C@H]2C(C)(C)CCC[C@]2(C)[C@H]1C/C=C1/CC(OC)OC1=O (some centres not stated) [CORONARIN D METHYL ETHER]
- GI50 (SK-N-SH): 13.6 µM
- LC50 (SK-N-SH): 19.1 µM
- GI50 (HeLa): > 100 µM
- LC50 (HeLa): > 100 µM
- GI50 (MCF7): 25.3 µM
- LC50 (concentration killing 50% of cells) (MCF7): 31.6 µM
- GI50 (A549): 30 µM
- CC50 (A549): 71.3 µM

Structure (SMILES): C=C1CC[C@H]2C(C)(C)CCC[C@]2(C)[C@H]1C/C=C1/CC(O)OC1=O (some centres not stated) [CORONARIN D]
- GI50 (SK-N-SH): 20.1 µM
- LC50 (SK-N-SH): 32 µM
- GI50 (HeLa): 47 µM
- LC50 (HeLa): 60.6 µM
- GI50 (MCF7): 17.4 µM
- LC50 (concentration killing 50% of cells) (MCF7): 21.9 µM
- GI50 (A549): 8 µM
- CC50 (A549): 14 µM

Structure (SMILES): CC(C)(O)C1CC[C@@]2(C)CCC[C@@](C)(O)[C@@H]2C1 (some centres not stated) [CRYPTOMERIDIOL]
- GI50 (SK-N-SH): 73.6 µM
- GI50 (HeLa): 75.6 µM
- GI50 (MCF7): 62.3 µM
- GI50 (A549): 14.5 µM
- CC50 (A549): 27.4 µM

Structure (SMILES): CCOC(=O)/C=C/c1ccc(O)c(OC)c1 [ETHYL FERULATE]
- GI50 (SK-N-SH): 22.3 µM
- GI50 (HeLa): 52.8 µM
- GI50 (MCF7): 86.3 µM
- GI50 (A549): 1.2 µM
- CC50 (A549): 5.8 µM

Structure (SMILES): CC1=CC(=O)[C@H]2C(C)(C)CCC[C@]2(C)[C@H]1/C=C/c1ccoc1 [HEDYCHENONE]
- GI50 (SK-N-SH): 11.6 µM
- LC50 (SK-N-SH): 17.2 µM
- GI50 (HeLa): 63.2 µM
- LC50 (HeLa): 81.5 µM
- GI50 (MCF7): 14.9 µM
- LC50 (concentration killing 50% of cells) (MCF7): 19.8 µM
- GI50 (A549): 7.4 µM
- CC50 (A549): 14 µM

Structure (SMILES): COC(=O)Nc1nc2cc(C(=O)c3cccs3)ccc2[nH]1 [NOCODAZOLE]
- GI50 (SK-N-SH): 0.66 µM
- GI50 (HeLa): 0.75 µM
- GI50 (MCF7): < 0.1 µM
- GI50 (A549): < 0.1 µM
- CC50 (A549): < 0.1 µM

Structure (SMILES): C=C1C(C/C=C2\COC(=O)C2)[C@@]2(C)CCCC(C)(C)[C@@H]2C[C@@H]1O (some centres not stated) [PACOVATININ A]
- GI50 (SK-N-SH): 54.8 µM
- LC50 (SK-N-SH): 59.9 µM
- GI50 (HeLa): 62.1 µM
- LC50 (HeLa): 80.7 µM
- GI50 (MCF7): 44.7 µM
- LC50 (concentration killing 50% of cells) (MCF7): 55.6 µM
- GI50 (A549): 15.1 µM
- CC50 (A549): 36.2 µM
